Measurements as given in patent publication US7452683B2, “Caspase 9 activation and uses therefor” (Wyeth, priority 2002, dated 2008).
Counter-ions that a name gives are not always drawn.

Legend:
Caspase 1 = target: T1, Caspase 1 (Homo sapiens, UniProt P29466); experiment: Caspase 1 activity in ammonium sulfate at various concentrations
T1 sequence (P29466 120-297 limits assumed): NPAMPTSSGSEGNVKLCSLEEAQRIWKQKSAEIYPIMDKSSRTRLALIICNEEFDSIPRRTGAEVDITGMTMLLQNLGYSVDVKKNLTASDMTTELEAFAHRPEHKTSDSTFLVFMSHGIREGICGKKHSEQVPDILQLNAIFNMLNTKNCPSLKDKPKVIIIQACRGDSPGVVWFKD
T1 sequence (P29466 317-404 limits assumed): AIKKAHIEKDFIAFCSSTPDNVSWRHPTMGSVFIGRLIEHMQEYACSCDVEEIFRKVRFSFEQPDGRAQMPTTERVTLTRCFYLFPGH
Experimental: (§1) The control buffer used to carry out specificity reactions is as follows: 20 mM PIPES pH 7.2, 1 mM EDTA, 0.1% CHAPS, 10% sucrose, 10 mM DTT. Various N-acetyl-tetrapeptide-7-amino-trifluoromethylcoumarin substrates at 100 uM were assayed with the different commercially available caspases. 2.5 mM stock substrate concentrations were prepared in DMSO and subsequently diluted to 200 uM with control buffer.
(§2) 300 U stock solutions of the enzymes in interest were prepared in the control buffer listed above. The assay was carried out as follows: 96 well black Dynex microfluorometer 1 plate was used. Total Assay volume was 100 ul. 7-amino-trifluoromethyl coumarin (AFC) was excited at 400 nm, and fluorescence emission was monitored at 505 nm kinetically for the duration of 1 hour (h) wherein AFC was cleaved from the peptide.
(§3) 50 ul of 200 uM stock substrate was added first (final assay concentration 100 uM). 40 ul of the control buffer was then added. The assay was initiated with the addition of 10 ul of the appropriate 300 U caspase stock (30 U in final assay). A linear rate (relative fluorescence U/s) was calculated from the entire duration of the experiment and graphed for each enzyme verses the various substrates tested.
(§4) The substrates in ammonium sulfate using Caspase 9 was 25 uM Ac-LEHD-Afc (SEQ ID NO: 5) and for Caspase 3 was 25 uM Ac-DEVD-Afc (SEQ ID NO: 1).

Caspase 3 = target: T2, Caspase 3 (Homo sapiens, UniProt P42574); experiment: Caspase 3 cleavage of Ac-DEVD-Afc in ammonium sulfate at various concentrations; settings: 25 uM Ac-DEVD-Afc
T2 sequence (P42574 29-175 limits assumed): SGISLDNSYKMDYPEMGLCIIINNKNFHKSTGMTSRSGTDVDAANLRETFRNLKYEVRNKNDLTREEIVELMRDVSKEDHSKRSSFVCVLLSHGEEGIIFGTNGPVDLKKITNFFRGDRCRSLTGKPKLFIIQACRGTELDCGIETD
T2 sequence (P42574 176-277 limits assumed): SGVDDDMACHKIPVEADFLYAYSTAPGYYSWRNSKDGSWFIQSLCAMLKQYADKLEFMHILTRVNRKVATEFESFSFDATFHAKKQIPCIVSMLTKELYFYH
Experimental: as §1, §2, §3, §4

Caspase 9 = target: T3, Caspase 9 (Homo sapiens, UniProt P55211); experiment: Caspase 9 cleavage of Ac-LEHD-AFC in buffers containing Hofmeister salts; type: biochemical
T3 construct: purchased
T3 sequence (P55211 1-315 limits assumed): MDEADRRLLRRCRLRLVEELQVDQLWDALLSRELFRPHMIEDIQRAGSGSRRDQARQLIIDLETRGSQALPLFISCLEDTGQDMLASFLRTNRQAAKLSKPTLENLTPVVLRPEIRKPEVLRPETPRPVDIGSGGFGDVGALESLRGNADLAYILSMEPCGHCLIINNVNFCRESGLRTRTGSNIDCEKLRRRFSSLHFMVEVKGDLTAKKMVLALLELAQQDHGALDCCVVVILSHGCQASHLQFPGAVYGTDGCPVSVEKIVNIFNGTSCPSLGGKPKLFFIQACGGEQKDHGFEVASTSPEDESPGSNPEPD
T3 sequence (P55211 331-416 limits assumed): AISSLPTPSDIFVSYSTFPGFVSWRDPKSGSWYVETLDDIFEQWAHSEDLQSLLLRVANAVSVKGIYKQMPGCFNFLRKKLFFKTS

Caspase 7 = target: T4, Caspase 7 (Homo sapiens, UniProt P55210); experiment: Caspase 7 activity in ammonium sulfate at various concentrations
T4 sequence (P55210 24-198 limits assumed): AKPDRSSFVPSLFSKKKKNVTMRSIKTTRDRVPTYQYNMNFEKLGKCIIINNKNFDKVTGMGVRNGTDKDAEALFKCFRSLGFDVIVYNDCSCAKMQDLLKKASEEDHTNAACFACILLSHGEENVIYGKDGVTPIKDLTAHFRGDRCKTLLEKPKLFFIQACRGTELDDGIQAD
T4 sequence (P55210 207-303 limits assumed): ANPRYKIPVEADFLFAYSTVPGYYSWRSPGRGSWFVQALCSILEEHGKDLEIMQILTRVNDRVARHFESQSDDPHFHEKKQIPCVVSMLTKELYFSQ
Experimental: as §1, §2, §3, §4

[1] = target: Herpes simplex virus 1 protease (Human herpesvirus 1, UniProt P10210); settings: 1M Na citrate; cited from earlier work
Herpes simplex virus 1 protease, sequence (P10210 1-247): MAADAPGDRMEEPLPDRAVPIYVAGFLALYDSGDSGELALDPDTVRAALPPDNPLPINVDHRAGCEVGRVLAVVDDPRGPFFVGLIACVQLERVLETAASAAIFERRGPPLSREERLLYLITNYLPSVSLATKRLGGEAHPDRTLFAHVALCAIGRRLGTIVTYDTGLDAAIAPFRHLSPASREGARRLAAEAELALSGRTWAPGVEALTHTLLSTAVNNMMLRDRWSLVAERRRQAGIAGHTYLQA

N.N.O=S(=O)(O)O [ammonium sulfate]
effect of salt on Caspase 1 activity (Caspase 1): no effect
effect of salt on Caspase 3 activity (Caspase 3): minimal effect
Caspase 9 activity increase (Caspase 9; sulfate concentrations from 0 to 1.6 M, 25 uM Ac-LEHD-Afc): 1400 fold
effect of salt on Caspase 7 activity (Caspase 7): no effect

O=C(O)CC(O)(CC(=O)O)C(=O)O [citrate, Na citrate]
activity of Caspase 9 relative to activity in 0.8 M bromide (Caspase 9; 0.8 M salt in control buffer pH 7.2, 100 uM N-Ac-LEHD-Afc, 30 U Caspase 9/well (0.72 uM)): 10,000 fold
increase in activity of Herpes simplex virus 1 protease [1]: 860 fold

O=P(O)(O)O [sodium phosphate]
Caspase 9 activity increase (Caspase 9; phosphate concentrations from 0 to 1 M, 100 uM Ac-LEHD-Afc): 2200 fold
